Test results from patent US20250296939A1, “BENZOTHIOPHENE COMPOUND” (Kyoto Pharmaceutical Industries, Ltd., priority 2022, published 2025).

Experiments:
[1] = target: GST-fused human Keap1 (amino acid residues: 325-642) protein (Homo sapiens (Human), UniProt Q14145); assay: FP assay (in vitro): inhibition of binding between Nrf2 and Keap1 by fluorescence polarization; conditions: 20 nM GST-fused human Keap1, 10 nM FITC-labeled Nrf2 peptide, 2 hr at room temperature
Procedure: Experimental Example 1: FP Assay (In Vitro)
The inhibitory activity of test compounds on the binding between Nrf2 and Keap1 was determined by fluorescence polarization. A solution of 50 mM Tris-HCl pH.8.0 (NACALAI, REF: 06938-15), and 5 mM DTT (SIGMA-ALDRICH, REF: 646563-10X.5 mL) was used as a buffer solution. 8 μL of a buffer solution containing 40 nM GST-fused human Keap1 (amino acid residues: 325-642) protein (Protein tech, REF: Ag0779) was taken in a black 384-well plate (final concentration 20 nM), and 4 μL of the test compound solution prepared to each concentration in buffer solution was added thereto. A well containing a portion of the buffer solution without Keap1 was placed as a negative control. A well with no compound was used as a positive control. 40 nM of FITC-labeled Nrf2 peptide (FITC-X-LQLDEETGEFLPIQ (X=ε-Acp), Peptide Institute Inc.) was added thereto (10 nM final concentration). The wells were incubated at room temperature for 2 hr, and then fluorescence polarization was measured with a plate reader SPECTRAMAX Paradigm (Molecular devices) at excitation wavelength of 485 nm and fluorescence wavelength of 535 nm. The fluorescence polarization of the negative control was set to 100% inhibition and that of the positive control to 0% inhibition, and the inhibitory rate upon addition of the test compound was calculated using the following formula.

[2] = tested on: NQO1 activity in Hepa1c1c7 cells; assay: NAD(P)H: quinone oxidoreductase-1 (NQO1) enzyme induction assay (in vitro); type: cell-based, mouse; conditions: Mus musculus, Hepa-1c1c7, NQO1 activity upon addition of 400 nM of test compound, about 48 hr, ratio from the base without the compound
Procedure: Experimental Example 2: NAD(P)H: Quinone Oxidoreductase-1 (NQO1) Enzyme Induction Assay (In Vitro)
The NQO1 assay was performed based on a previous report (Methods in Enzymology 2004; 382: 243-258). Hepa1c1c7 cells (mouse hepatocyte cell line, ATCC, cat. no. CRL-2026) were cultured in D-MEM medium containing 10% FBS and 1% penicillin/streptomycin (5% CO2, 37° C.), and seeded into 96-well plates (Corning REF. 353072) at 1×10^4 cells/well. A portion of the wells were prepared with medium only for background measurement without seeding cells. The next day, 400 nM of the test compound (0.004% of the final concentration in DMSO) dissolved in DMSO was added thereto, and the wells were incubated for about 48 hr. A well without adding the test compound was prepared for base activity assay in part.
Cell lysate (solution containing 0.8% digitonin, 2 mM EDTA), reaction solution (solution containing 25 mM Tris-HCl, 0.07% albumin, 0.01% Tween-20, 2 U/mL glucose-6-phosphate dehydrogenase, 5 μM flavin adenine dinucleotide, 1 μM glucose-6-phosphate, 30 μM nicotinamide adenine dinucleotide phosphate, 0.03% 3-(4,5-dimethyl-2-thiazolyl)-2,5-diphenyltetrazolium bromide (MTT), and 50 μM menadione), stop solution (solution containing 0.3 mM dicoumarol and 5 mM potassium dihydrogen phosphate, pH 7.4) were prepared. After the medium was removed, 50 μL of the cell lysate was added and incubated at 37° C. for 10 minutes, followed by shaking at room temperature for 10 minutes. 200 μL of reaction solution was added thereto, and allowed to stand for 5 minutes at room temperature. 50 μL of the stop solution was added thereto, and absorbance was measured at 610 nm on a SpectraMax PLUS384 (Molecular devices) or POWERSCAN HT (DS Pharma Biomedical). The test results were analyzed in Excel, and the NQO1 activity upon addition of 400 nM of test compound was calculated as a ratio from the base without the compound.
The results of each test compound in this test are shown in the following Table 2 (A: 5<NQO1 activity ratio, B: 3<NQO1 activity ratio 5, C: 1.5<NQO1 activity ratio 3).

Sequence of GST-fused human Keap1 (amino acid residues: 325-642) protein (Q14145 325-624 limits assumed): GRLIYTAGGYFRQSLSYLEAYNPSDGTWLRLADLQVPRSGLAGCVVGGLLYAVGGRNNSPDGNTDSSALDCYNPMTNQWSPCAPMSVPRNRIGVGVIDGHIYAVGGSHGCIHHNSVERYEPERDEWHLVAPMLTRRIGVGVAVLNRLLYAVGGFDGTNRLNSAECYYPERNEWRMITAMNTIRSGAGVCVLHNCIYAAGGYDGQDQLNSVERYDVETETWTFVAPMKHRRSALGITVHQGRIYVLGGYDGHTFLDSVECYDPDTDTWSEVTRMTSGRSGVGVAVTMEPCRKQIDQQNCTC

Compound	IC50 [1] [nM]	fold induction at 0.4 µM [2]
CC[C@H]1Cc2ccc(O)nc2CN(Cc2cc([C@@H](CC(=O)O)c3cc(C)c4c(nnn4C)c3C)cc3ccsc23)C1 [Example 87, (3R)-3-(7-{[(6S)-6-Ethyl-2-hydroxy-5,6,7,9-tetrahydro-8H-pyrido[2,3-c]azepin-8-yl]methyl}-1-benzothiophen-5-yl)-3-(1,4,7-trimethyl-1H-benzotriazol-5-yl)propanoic acid]	≤ 10	> 5
CC[C@@H]1CN(Cc2cc([C@@H](CC(=O)O)c3cc(OC)c4c(nnn4C)c3C)cc3ccsc23)Cc2nc(O)ccc2O1 [Example 21, (3R)-3-(7-{[(2R)-2-Ethyl-7-hydroxy-2,3-dihydropyrido[2,3-f][1,4]oxazepin-4(5H)-yl]methyl}-1-benzothiophen-5-yl)-3-(7-methoxy-1,4-dimethyl-1H-benzotriazol-5-yl)propanoic acid]	10 to 30	> 5
CC[C@@H]1CN(Cc2cc([C@@H](CC(=O)O)c3ccc4c(nnn4CC(C)(C)O)c3C)cc3ccsc23)Cc2nc(O)ccc2O1 [Example 19, (3R)-3-(7-{[(2R)-2-Ethyl-7-hydroxy-2,3-dihydropyrido[2,3-f][1,4]oxazepin-4(5H)-yl]methyl}-1-benzothiophen-5-yl)-3-[1-(2-hydroxy-2-methylpropyl)-4-methyl-1H-benzotriazol-5-yl]propanoic acid]	30 to 300	3 to 5
CC[C@@H]1CN(Cc2cc([C@H](CC(=O)O)c3cc(C4CC4)c4c(nnn4C)c3C)cc3ccsc23)Cc2nc(O)ccc2O1 [Example 36, (3S)-3-(7-Cyclopropyl-1,4-dimethyl-1H-benzotriazol-5-yl)-3-(7-{[(2R)-2-ethyl-7-hydroxy-2,3-dihydropyrido[2,3-f][1,4]oxazepin-4(5H)-yl]methyl}-1-benzothiophen-5-yl)propanoic acid]	10 to 30	> 5
CC[C@@H]1CN(Cc2cc([C@H](CC(=O)O)c3cc(OC)c4c(nnn4C)c3C)cc3ccsc23)Cc2nc(O)ccc2O1 [Example 22, (3S)-3-(7-{[(2R)-2-Ethyl-7-hydroxy-2,3-dihydropyrido[2,3-f][1,4]oxazepin-4(5H)-yl]methyl}-1-benzothiophen-5-yl)-3-(7-methoxy-1,4-dimethyl-1H-benzotriazol-5-yl)propanoic acid]	≤ 10	3 to 5
CC[C@@H]1CN(Cc2cc([C@@H](CC(=O)O)c3cc(C#N)c4c(nnn4C)c3C)cc3ccsc23)Cc2nc(O)ccc2O1 [Example 33, (3R)-3-(7-Cyano-1,4-dimethyl-1H-benzotriazol-5-yl)-3-(7-{[(2R)-2-ethyl-7-hydroxy-2,3-dihydropyrido[2,3-f][1,4]oxazepin-4(5H)-yl]methyl}-1-benzothiophen-5-yl)propanoic acid]	10 to 30	> 5
Cc1c([C@H](CC(=O)O)c2cc(CN3Cc4nc(O)ccc4O[C@@H](C(F)(F)F)C3)c3sccc3c2)ccc2c1nnn2C [Example 39, (3R)-3-(1,4-Dimethyl-1H-benzotriazol-5-yl)-3-(7-{[(2R)-7-hydroxy-2-(trifluoromethyl)-2,3-dihydropyrido[2,3-f][1,4]oxazepin-4(5H)-yl]methyl}-1-benzothiophen-5-yl)propanoic acid]	300 to 3000	1.5 to 3
CC[C@H]1Cc2ccc(O)nc2CN(Cc2cc([C@H](CC(=O)O)c3ccc4c(nnn4C)c3Cl)cc3ccsc23)C1 [Example 84, (3S)-3-(4-Chloro-1-methyl-1H-benzotriazol-5-yl)-3-(7-{[(6S)-6-ethyl-2-hydroxy-5,6,7,9-tetrahydro-8H-pyrido[2,3-c]azepin-8-yl]methyl}-1-benzothiophen-5-yl)propanoic acid]	≤ 10	> 5
Cc1c([C@H](c2cc(CN3Cc4nc(O)ccc4O[C@H](C4CC4)C3)c3sccc3c2)C(C)(C)C(=O)O)cnc2c1nnn2C [Example 51, (3S)-3-(7-{[(2R)-2-Cyclopropyl-7-hydroxy-2,3-dihydropyrido[2,3-f][1,4]oxazepin-4(5H)-yl]methyl}-1-benzothiophen-5-yl)-3-(3,7-dimethyl-3H-[1,2,3]triazolo[4,5-b]pyridin-6-yl)-2,2-dimethylpropanoic acid]	10 to 30	> 5
Cc1c([C@H](CC(=O)O)c2cc(CN3Cc4nc(O)ccc4CC(C4CC4)C3)c3sccc3c2)cnc2c1nnn2C (single isomer, unassigned) [Example 90, (3R)-3-(7-{[(6R*)-6-Cyclopropyl-2-hydroxy-5,6,7,9-tetrahydro-8H-pyrido[2,3-c]azepin-8-yl]methyl}-1-benzothiophen-5-yl)-3-(3,7-dimethyl-3H-[1,2,3]triazolo[4,5-b]pyridin-6-yl)propanoic acid]	30 to 300	> 5

More lines, main results first:

IC50 [1] [nM]	Compound	fold induction at 0.4 µM [2]
≤ 10	CC[C@@H]1CN(Cc2cc([C@H](CC(=O)O)c3ccc4c(nnn4C)c3C)cc3ccsc23)Cc2nc(N)ccc2O1 [Example 56, (3S)-3-(7-{[(2R)-7-Amino-2-ethyl-2,3-dihydropyrido[2,3-f][1,4]oxazepin-4(5H)-yl]methyl}-1-benzothiophen-5-yl)-3-(1,4-dimethyl-1H-benzotriazol-5-yl)propanoic acid]	> 5
10 to 30	CC[C@@H]1CN(Cc2cc([C@H](CC(=O)O)c3ccc4c(nnn4C)c3C)cc3ccsc23)Cc2nc(O)ccc2O1 [Example 1, (3S)-3-(1,4-Dimethyl-1H-benzotriazol-5-yl)-3-(7-{[(2R)-2-ethyl-7-hydroxy-2,3-dihydropyrido[2,3-f][1,4]oxazepin-4(5H)-yl]methyl}-1-benzothiophen-5-yl)propanoic acid]	> 5
≤ 10	CC[C@@H]1CN(Cc2cc([C@@H](CC(=O)O)c3ccc4c(nnn4C)c3C)cc3ccsc23)Cc2nc(N)ccc2O1 [Example 55, (3R)-3-(7-{[(2R)-7-Amino-2-ethyl-2,3-dihydropyrido[2,3-f][1,4]oxazepin-4(5H)-yl]methyl}-1-benzothiophen-5-yl)-3-(1,4-dimethyl-1H-benzotriazol-5-yl)propanoic acid]	> 5
30 to 300	Cc1c([C@H](CC(=O)O)c2cc(CN3Cc4nc(O)ccc4O[C@H](C)C3)c3sccc3c2)ccc2c1nnn2C [Example 16, (3R)-3-(1,4-Dimethyl-1H-benzotriazol-5-yl)-3-(7-{[(2R)-7-hydroxy-2-methyl-2,3-dihydropyrido[2,3-f][1,4]oxazepin-4(5H)-yl]methyl}-1-benzothiophen-5-yl)propanoic acid]	> 5
10 to 30	CC[C@@H]1CN(Cc2cc([C@H](CC(=O)O)c3cc(Cl)c4c(nnn4C)c3C)cc3ccsc23)Cc2nc(O)ccc2O1 [Example 32, (3S)-3-(7-Chloro-1,4-dimethyl-1H-benzotriazol-5-yl)-3-(7-{[(2R)-2-ethyl-7-hydroxy-2,3-dihydropyrido[2,3-f][1,4]oxazepin-4(5H)-yl]methyl}-1-benzothiophen-5-yl)propanoic acid]	> 5
10 to 30	CC[C@@H]1CN(Cc2cc(C(CC(=O)O)c3ccc4c(nnn4C)c3C)cc3ccsc23)Cc2nc(F)c(O)cc2O1 (stereo partly drawn) [Example 74, 3-(1,4-Dimethyl-1H-benzotriazol-5-yl)-3-(7-{[(2R)-2-ethyl-7-fluoro-8-hydroxy-2,3-dihydropyrido[2,3-f][1,4]oxazepin-4(5H)-yl]methyl}-1-benzothiophen-5-yl)propanoic acid]	> 5
